Each structure is given as a SMILES string. pIC50: −log10 of the molar value. Entries after “also recorded” stand apart in the source; their conditions may differ. Where two headings read alike, the source gives them in different places.

Results on 9 molecules are retold here after patent US10857082B2, “Diarylalkanes as potent inhibitors of binuclear enzymes” (Unigen, Inc., priority 2004, dated 2020).

The target in data set [1] is mushroom tyrosinase (Agaricus bisporus, UniProt C7FF04). The data set can be described thus: Tyrosinase inhibition assay (L-DOPA to dopachrome, absorbance at 450 nm). It counts as biochemical. Here is the method: (§1) A tyrosinase inhibition assay was carried out using the method reported by Jones et al. (2002) Pigment. Cell Res. 15:335. Using this method, the conversion of L-Dopa, a substrate of tyrosinase, into dopachrome is followed by monitoring absorption at 450 nm. Tyrosinase was prepared in 50 mM potassium phosphate buffer, pH 6.8 (assay buffer) at 2000 U/ml and stored at −20° C. in 1 ml aliquots prior to use. For use in assays, stock enzyme solutions were thawed and diluted to 200 U/ml with assay buffer. A 2 mM working solution of substrate, L-DOPA, was prepared in assay buffer for each assay. Samples were dissolved in 10% DMSO (0.5 ml) and diluted to 5 ml with assay buffer. The reaction mixture consisted of 0.050 ml 2 mM L-DOPA, 0.050 ml 200 U/ml mushroom tyrosinase and 0.050 ml inhibitor. Reaction volume was adjusted to 200 μl with assay buffer. Assays were performed in 96 well Falcon 3097 flat-bottom microtiter plates (Beckton Dickinson, N.J.). Appearance of dopachrome was measured with a WALLAC 1420 Multilable Counter (Turku, Finland). Average velocity was determined from linear enzyme rate as measured by change in absorbance (ΔA450) at 450 nm per minute. Percent inhibition of tyrosinase by test samples was determined by comparison of absorbance of samples versus control using formula (I): (Negative control absorption-sample absorption)/Negative control absorption×100 (1)
Chain of mushroom tyrosinase (C7FF04 1-392 limits assumed): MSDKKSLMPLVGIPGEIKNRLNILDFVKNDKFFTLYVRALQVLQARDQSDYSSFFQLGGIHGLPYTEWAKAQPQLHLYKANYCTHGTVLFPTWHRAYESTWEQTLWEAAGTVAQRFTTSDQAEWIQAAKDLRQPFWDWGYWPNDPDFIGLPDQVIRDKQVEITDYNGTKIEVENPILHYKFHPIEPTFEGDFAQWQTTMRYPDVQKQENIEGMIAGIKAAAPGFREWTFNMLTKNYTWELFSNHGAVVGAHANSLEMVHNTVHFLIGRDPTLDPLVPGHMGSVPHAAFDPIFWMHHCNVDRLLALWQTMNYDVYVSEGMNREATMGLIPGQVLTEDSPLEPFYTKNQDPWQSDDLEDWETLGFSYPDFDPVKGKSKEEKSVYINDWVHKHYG
Inhibition of tyrosinase by synthetic diarylalkanes was measured using the method described in Example 2. The IC50 value of each sample was calculated using kinetics software to verify that the reaction was linear at a specified time and concentration.

For data set [2], the system named is B16 F1 cells. The data set can be described thus: Inhibition of melanin production in B16 F1 cells with β-MSH induction. It counts as cell-based, mouse. From the text: (§2) Color development was visually monitored each morning.
Data set [3] has as its system B16 F1 cells. The data set can be described thus: Cell toxicity assay, lactate dehydrogenase (LDH). Here is the method: The inhibition of melanin production was evaluated using two different assays. In the first assay, the inhibition of melanin production was evaluated without induction by β-MSH; whereas in the second assay the inhibition of melanin production was measured with β-MSH induction in cell culture medium. Briefly, B16 F1 cells (ATCC #CRL-622) were grown to confluency and then seeded at 40,000 cells per well. The cells were allowed to attach overnight at 37° C. in a humidified environment containing 5% CO2. On day 2, inhibitors were added to the cells at concentrations ranging from 0-1000 μM in triplicate and allowed to incubate for four days. The amount of β-MSH required to induce melanin formation was determined by the addition of hormone at concentrations ranging from 0-1000 nM in ten-fold increments. Once the proper β-MSH concentration was determined, cells were seeded as above, allowed to attach overnight and then co-incubated with tyrosinase inhibitors at concentrations ranging from 0-1000 μM. Color development was visually monitored each morning. After the development of color, 200 μl of cell supernatant was removed from each well and absorbance was measured at 450 nm. The resulting readings were used to determine the IC50 for melanin formation in the cell assay with and without β-MSH induction. For an initial comparison of cell toxicity, the 250 μM treated wells were used to perform a lactate dehydrogenase assay (LDH). LDH is a metabolic enzyme that leaks out of damaged or dead cells. The enzyme converts a chromophore in the presence of NAD^+ to yield a color change that can be monitored spectrophotometrically.
The compound treated wells were used to perform a lactate dehydrogenase assay (LDH). LDH is a metabolic enzyme that leaks out of damaged or dead cells. The enzyme converts a chromophore in the presence of NAD^+ to yield a color change that can be monitored spectrophotometrically. The cytotoxicity was examined at a concentration of 250 μM. […] It should be noted however, that cytotoxicity at only one concentration (250 μM) was tested.

For data set [4], the system named is B16 F1 cells. The experiment in a line: Inhibition of melanin production in B16 F1 cells without β-MSH induction (endogenous). The format is cell-based, mouse. Conditions: for Inhibition of melanin production relative to kojic acid, in words: B-16 cell line model, with and without β-MSH induction.
Text: as §2

Data set [5] has as its system tyrosinase. The experiment in a line: Enzyme inhibition kinetics with L-DOPA as substrate. The format is biochemical, mushroom. Here is the method: as §1, with “A 2 mM working solution of substrate, L-DOPA, was prepared in assay buffer for each assay.” left out, “The reaction mixture consisted of 0.050 ml 2 mM L-DOPA, 0.050 ml 200 U/ml mushroom tyrosinase and 0.050 ml inhibitor.” left out

Data set [6] deals with DOPA oxidase activity. The conditions noted are these: cited from earlier work.
The target in data set [7] is human tyrosinase hydroxylase activity (Homo sapiens (Human), UniProt P14679). The conditions noted are these: cited from earlier work.
Chain of human tyrosinase hydroxylase activity (P14679 19-529): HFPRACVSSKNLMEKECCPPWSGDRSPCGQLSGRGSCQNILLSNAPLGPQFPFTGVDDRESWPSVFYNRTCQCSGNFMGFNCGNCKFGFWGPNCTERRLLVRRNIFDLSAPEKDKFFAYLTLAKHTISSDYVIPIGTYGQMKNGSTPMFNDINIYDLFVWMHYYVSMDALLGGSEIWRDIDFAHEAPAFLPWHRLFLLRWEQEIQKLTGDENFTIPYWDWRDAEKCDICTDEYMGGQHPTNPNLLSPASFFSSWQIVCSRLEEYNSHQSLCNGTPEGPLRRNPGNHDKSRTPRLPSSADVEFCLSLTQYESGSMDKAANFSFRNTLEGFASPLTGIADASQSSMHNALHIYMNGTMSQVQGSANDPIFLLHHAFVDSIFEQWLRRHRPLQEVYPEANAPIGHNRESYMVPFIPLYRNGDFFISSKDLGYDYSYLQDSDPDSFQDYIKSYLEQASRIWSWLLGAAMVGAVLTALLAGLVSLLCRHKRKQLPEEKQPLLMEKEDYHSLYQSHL
The test system of data set [8] is B16 F1 murine melanoma cells. Conditions: read-out: IC50, melanin biosynthesis; cited from earlier work.
[9] abbreviates: Table 2, synthetic diarylalkanes and/or diarylalkanols, read-out: Tyrosinase Inhibition (IC50).
Where [10] appears, read: Table 3, mouse B16 F1 cells, β-MSH induction, read-out: MSH Induced Melanin Inhibition IC50.
The mark [11] stands for this setting: Table 3, mouse B16 F1 cells, no β-MSH, read-out: Endogenous Melanin Inhibition IC50.
[12] abbreviates: read-out: IC50 for inhibition of tyrosinase.
Where [13] appears, read: Mus musculus, B16 F1 cells, with β-MSH induction, read-out: IC50 for melanin formation, induced experiment.
[14] abbreviates: Mus musculus, B16 F1 cells, without β-MSH induction, read-out: IC50 for melanin formation, endogenous experiment.

For the molecule `COc1ccc(O)c(C(O)CCc2ccc(OC)c(OC)c2)c1` (stereo not drawn) [l-(2-hydroxy-5-methoxyphenyl)-3-(3′,4′-dimethoxyphenyl)-1-propanol], the pIC50 in data set [1] (setting [9]) is 4.52.
`COc1cc(CCC(O)c2ccc(O)cc2O)ccc1O` (centres unmarked) [1-(2,4-dihydroxyphenyl)-3-(3′-methoxy-4′-hydroxyphenyl)-1-propanol]: the “Tyrosinase inhibitory activity in words” value in data set [1] is reported as “quite strong tyrosinase inhibitory activity”.
In the case of `COc1ccc(O)c(CCCc2ccc(O)cc2OC)c1` [UP288, 1-(2-methoxy-4-hydroxyphenyl)-3-(2′-hydroxy-5′-methoxyphenyl)-propane], the pIC50 in data set [2] (setting [10]) was 3.98; in data set [4] (setting [11]), 3.97. Also, in data set [3] (mouse, 4 days, 250 μM), the “Cell Toxicity (LDH)” value was 0.315. Also, the “Inhibition of melanin production relative to kojic acid, in words” value in data set [4] is “comparable to kojic acid; also recorded: at least as good, if not better inhibitors than kojic acid”. The “Tyrosinase inhibitory activity in words” value in data set [1] is recorded as “as potent a tyrosinase inhibitor as kojic acid; also recorded: strong tyrosinase inhibition activity”.
Consider `COc1ccc(C(O)CCc2ncc(Cl)n2C)c(O)c1` (centres unmarked) [3-(5′-chloro-1′-methyl-1′-hydro-imidazol-2′-yl)-1-(2-hydroxy-4-methoxyphenyl)-1-propanol], for which the negative-log IC50 (pIC50) in data set [1] (setting [9]) and in data set [1] (setting [12]) was 3.65 each time.
Take `COc1ccc(C(O)CCc2ccc3c(c2)OCCCCO3)c(O)c1` (centres unmarked) [1-(2-hydroxy-4-methoxyphenyl)-3-(2′,3′,4′,5′-tetrahydro-benzo(b)dioxoin-8′-yl)-1-propanol]: the pIC50 in data set [1] (setting [9]) and in data set [1] (setting [12]) was 4.14 in each case.
In the case of `O=c1cc(CO)occ1O` [Kojic acid, kojic acid, reference compound], the pIC50 is 4.17 in data set [2] (setting [13]); 4.17 in data set [2] (setting [10]); 3.39 in data set [6]; 3.77 in data set [4] (setting [14]); 3.77 in data set [4] (setting [11]). In addition, the “Time until tyrosinase activity was totally restored following incubation” value in data set [5] amounted to 1 h. Also, in data set [3] (250 μM treated wells), the “Cell Toxicity (LDH)” value was 0.260.
`CC(=O)Cc1cc(=O)c2c(C)cc(O)c([C@@H]3O[C@H](CO)[C@@H](O)[C@H](O)[C@H]3O)c2o1` [aloesin]: the results for the pIC50 in data set [7], in data set [8] and in data set [6] were 3.04, 3.78 and 3.15, respectively.
`COc1ccc(CCCc2ccc(O)cc2O)c(OC)c1C` [UP302a, 1-(3-methyl-2,4-dimethoxyphenyl)-3-(2′,4′-dihydroxyphenyl)-propane]: in data set [2] (B-16 cell line), the “Inhibition of MSH induced melanin production relative to kojic acid” value was “significantly greater than kojic acid”. Further, the pIC50 was 4.40 in data set [2] (setting [13]), 4.40 in data set [2] (setting [10]), 4.55 in data set [4] (setting [14]) and 4.55 in data set [4] (setting [11]). The “Resumption of tyrosinase activity after incubation with inhibitor” value in data set [5] is reported as “not resumed for several days”. In addition, the “Type of tyrosinase inhibition” value in data set [5] (inhibitor 0, 261, 522, 1044 nM, L-DOPA 0.75, 1.25, 2.5 mM) is on record as “powerful competitive inhibitor”. In addition, the “Cell Toxicity (LDH)” value in data set [3] (mouse, 4 days, 250 μM) is listed as 0.265. The “Inhibition of melanin production relative to kojic acid, in words” value in data set [4] was “at least as good, if not better inhibitors than kojic acid”. The “Tyrosinase inhibitory activity in words” value in data set [1] was “strong tyrosinase inhibitory activity”.
On to `OC[C@H]1O[C@@H](Oc2ccc(O)cc2)[C@H](O)[C@@H](O)[C@@H]1O` [arbutin], for which the pIC50 in data set [6] is 2.52.
